# Assay results reported in PubChem BioAssay (NCI).
# Where “and” joins values, the source holds several entries; their conditions need not be identical. Identical values can stand only once.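 Tested at 5 concentrations; 48 h exposure; 96-well plates; endpoints linearly interpolated, else capped at highest concentration. The concentration for 50% growth inhibition is given as GI50. The concentration for full growth arrest is given as TGI.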 Where a SMILES comes first, the peptide text is derived from it. [ ]: non-standard residue; d: D form. Phe(ol) = N[C@H](CO)Cc1ccccc1; Aib = CC(C)(N)C(=O)O
# Tested on: MDA-MB-468 breast
# Test: NCI tumour cell line growth inhibition, 48 h
Structure (SMILES),GI50,TGI
CC(Nc1c(C#N)cnc2ccc(-c3cncc(O)c3)cc12)c1ccccc1 (configuration not stated),0.913 µM,3.43 µM
CC/C(=C/c1ccc(OC)cc1)[N+](=O)[O-],1.83 µM,3.63 µM
CCNC(=O)N1CCc2cc(OC)c(OCCc3ccc(OC)cc3)cc2C1c1ccc([N+](=O)[O-])cc1C (configuration not stated),1.37 µM,4.78 µM
O=C(CC1(O)C(=O)Nc2ccc(Cl)cc21)c1ccc(C(=O)NCC2CCC3(CC2)OOC2(CCCCC2)OO3)cc1 (configuration not stated),2.12 µM,5.66 µM
O=C(NOCCO)c1ccc2cncn2c1Nc1ccc(I)cc1F,> 10 µM and 22.3 µM,> 100 µM
CC1CCc2c(C(=O)Nc3ncc(Cc4cccc([N+](=O)[O-])c4)s3)csc2C1 (configuration not stated),0.345 µM,> 100 µM
COc1cccc(/C=C\C(=O)c2ccccc2)c1,2.14 µM,6.49 µM
O=C1c2ccccc2-c2cn(Cc3ccccc3)c3cccc(c23)C1c1cccnc1 (configuration not stated),2 µM,37.6 µM
COC(=O)[C@]12CC[C@@H](C)[C@H](C)[C@@H]1C1=CC[C@@H]3[C@@]4(C)C[C@@H](OC(C)=O)[C@H](OC(C)=O)[C@@](C)(COC(C)=O)[C@@H]4[C@H](O)C[C@@]3(C)[C@]1(C)CC2,0.832 µM,46 µM
Cc1cnc(C(=O)Nc2nc3ccc(S(=O)(=O)Nc4ccc(C(C)(C)C)cc4)cc3[nH]2)cn1,0.27 µM,1.73 µM
C#CCn1cccc1CNc1ccc(OC)cc1,14.2 µM,60.5 µM
COc1cc([C@@H]2c3cc4c(cc3[C@@H](OC3OC5COC(C)OC5C(O)C3O)[C@H]3COC(=O)[C@H]23)OCO4)cc(OC)c1O (some centres not stated),2.73 µM and 2.12 µM,22.3 µM and 18.7 µM
Oc1ccccc1/C=N\NC(=S)Nc1ccc(F)cc1,2.53 µM,26.5 µM
COc1cc(/C=N/NC(=O)c2cnn3c2NC(c2ccccc2)C3)ccc1OCc1ccccc1 (configuration not stated),0.318 µM,2.16 µM
Cc1ccc(C)c(N2CCN(c3ccncc3N)CC2)c1,3.4 µM,18 µM
COC(=O)c1sc(-n2cnc3cc(OC)c(OC)cc32)cc1OCc1ccccc1C(F)(F)F,3.72 µM,> 25 µM
Nc1nc(SCC#CCCl)c2[nH]cnc2n1,1.88 µM,6.38 µM
COc1ccc(/C=C\c2cc(OC)c(OC)c(OC)c2)cc1NC(=O)/C=C/c1cc(OC)c(OC)c(OC)c1,1.82 µM,6.66 µM
COc1ccc(/C(=C(\c2ccccc2)[N+](=O)[O-])c2ccc(OCCN3CCCC3)cc2)cc1,1.75 µM,4.27 µM
COc1cc(OC)c(/C=C/S(=O)(=O)Cc2ccc(OC)c(N)n2)c(OC)c1,< 0.01 µM,> 100 µM
CNC(=O)c1sc(-n2cnc3cc(OC)c(OC)cc32)cc1OCc1ccccc1C(F)(F)F,> 19 µM,> 25 µM

Structure (SMILES),GI50,TGI
O=C(/C=C/c1ccco1)Nc1ncc(Cc2cc(Cl)ccc2Cl)s1,0.15 µM,> 46 µM
O=C1c2ccc3c4c(ccc(c24)C(=O)N1CCCCO)C(=O)N(CCCCO)C3=O,1.21 µM,3.22 µM
NS(=O)(=O)c1cccc(Nc2cc(-c3ccc(F)cc3)[nH]n2)c1,> 23.6 µM,> 25 µM
CN1CCN(Cc2ccc(NC(=O)c3cncc(C#Cc4c(N)ncc5ccccc45)c3)cc2C(F)(F)F)CC1,0.818 µM,1.63 µM
O=C(NCCN1CCOCC1)c1cc2c(Oc3ccc(NC(=O)C4(C(=O)Nc5ccc(F)cc5)CC4)cc3)ccnc2[nH]1,2.31 µM,13.6 µM
CC(C)(C)n1cc(-c2ccnc(NCCCNS(=O)(=O)c3cccc4ccccc34)c2)c(-c2cccc(O)c2)n1,2.04 µM,5.39 µM
COc1cc(C(=O)/C=C/c2c[nH]c3ccccc23)cc(OC)c1OC,0.0857 µM,1.61 µM
N#Cc1cnn(C(=O)c2nn(-c3ccc(Cl)cc3)cc2O)c1N,0.948 µM,15.1 µM
CCCCCCCCCC(=O)Oc1ccc(/C(=C(/C)c2ccccc2)c2ccc(OCCN3CCCC3)cc2)cc1,7.25 µM,14.7 µM
CCCCCn1sc(=O)n(Cc2ccc(CNC(=O)C(C)c3ccc(CC(C)C)cc3)cc2)c1=O (configuration not stated),0.945 µM,2.45 µM
C#Cc1nc(C2=C(C)/C(=N/OCc3ccccc3)CC2)cs1,17.8 µM,94.7 µM
N#Cc1ccc2c(-c3ccnc(NC4CC4)n3)c(-c3ccc(F)cc3)nn2c1,> 24.2 µM,> 25 µM
CO/N=C1\CCc2c(sc(NC(=O)c3cccc(C(F)(F)F)c3)c2C(N)=O)C1,1.5 µM,5.91 µM
CC[C@H](C)[C@H](NC(=O)CN(C)C)C(=O)N(C)[C@H](C[C@@H](OC(C)=O)c1nc(C(=O)NC23C4C5C2C2C3C4C52C(=O)OC)cs1)C(C)C (some centres not stated),0.147 µM,> 33.2 µM
Cc1cc2nc3c4cc(C#N)ccc4n(CCN(C)C)c3nc2cc1C,1.33 µM,3.91 µM
COc1ccc([C@@H]2[C@@H](Cl)C(=O)N2c2cc(OC)c(OC)c(OC)c2)cc1C,0.0414 µM,> 100 µM
ClC/C=C/CSc1ncnc2nc[nH]c12,> 100 µM,> 100 µM
COc1cc(/C=N\Nc2ccccc2)ccc1OC(=O)c1ccccc1,2.74 µM,34.8 µM
CC(=O)NC(C)(C)C(=O)N1CCC[C@H]1C(=O)NC(C)(C)C(=O)N[C@@H](C)C(=O)NC(C)(C)C(=O)NC(C)(C)C(=O)N[C@@H](CCC(N)=O)C(=O)NC(C)(C)C(=O)N[C@H](C(=O)NC(C)(C)C(=O)NCC(=O)N[C@@H](CC(C)C)C(=O)NC(C)(C)C(=O)N1CCC[C@H]1C(=O)N[C@H](C(=O)NC(C)(C)C(=O)NC(C)(C)C(=O)N[C@@H](CCC(N)=O)C(=O)N[C@@H](CCC(N)=O)C(=O)N[C@H](CO)Cc1ccccc1)C(C)C)C(C)C (Ac-[Aib]P[Aib]A[Aib][Aib]Q[Aib]V[Aib]GL[Aib]PV[Aib][Aib]QQ[Phe(ol)]),0.209 µM,2.36 µM
COc1cc(F)c(F)c(Nc2ccc(I)cc2F)c1NS(=O)(=O)C1(CC(O)CO)CC1 (configuration not stated),14.4 µM,47.7 µM
